A value given as a limit tells only on which side of the number the result lay.

This passage reports IC50 results from patent US11691992B2 (Anacor Pharmaceuticals, Inc., priority 2017, dated 2023).

Common to all, as to format: cell-based
Assay [1] deals with IL3000 T. congolense (drug sensitive) strain. Nature of the assay: In vitro Alamar Blue 72 h drug sensitivity assay for T. congolense. As to conditions: Trypanosoma congolense; bloodstream form, 69 h + 3 h resazurin, 34° C.; classes A-C; read-out: IC50: I Org. Growth T. congolense IL-3000, 3 d. Put shortly: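 Bloodstream-form trypanosomes in HMI medium with 20% bovine serum, exposed to compound for 69 h at 34 °C, 5% CO2, then resazurin for 3 h more. Fluorescence read at 536/588 nm. IC50 from 11-point sigmoidal dose-response curves, at least three independent runs.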
For orientation: The colour change of resazurin is a common sign of viable cells or microbes.

For assay [2], the system named is TdTomato-modified T. cruzi (CL strain) in Vero cells. Nature of the assay: In vitro IC50 measurement of T. cruzi amastigote killing using TdTomato-modified T. cruzi (CL strain). The following applies: Trypanosoma cruzi, 72 h, fluorescence, read-out: IC50: I Org. amastigote Growth T. cruzi CL TdTomato, 3 d. Put shortly:
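Vero cells were infected with tdTomato-expressing CL-strain parasites and dosed at 5 uM–5 nM. Fluorescence (ex 544/em 612 nm) was read at day 0 and again after 72 h at 37 °C, with day 0 values subtracted. IC50 and IC90 came from nonlinear regression.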

Assay [3] deals with promastigote forms of L. major. The assay can be described thus: Leishmania major promastigote growth inhibition assay (Alamar Blue). The following applies: promastigotes, 44 hours + 4 hours Alamar Blue, read-out: IC50: I Org. promastigote Growth L. major, 2 d. Put shortly: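 Early-log L. major promastigotes (5,000/well) in Schneider's medium with 20% FBS incubated with compound 44 h at 28° C; drug solutions in DMSO were 10,000 or 1,000 ng/ml before dispensing. Alamar Blue added 4 h, fluorescence at 560/590 nm gives percent growth inhibition; IC50 determined for compounds inhibiting ≥50%.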

By IC50 is commonly meant the concentration that inhibits the measured activity by half. Turning to `COc1ccc(-n2nnc(C(=O)Nc3ccc4c(c3)B(O)OC4C)c2C)cc1` (stereo not drawn) [Example 19, N-(1-hydroxy-3-methyl-1,3-dihydrobenzo[c][1,2]oxaborol-6-yl)-1-(4-methoxyphenyl)-5-methyl-1H-1,2,3-triazole-4-carboxamide], the IC50 in assay [1] lay in the range of 100 to 300 nM; in assay [2], 600 to 1000 nM; in assay [3], 600 to 2500 nM.
With `COc1ccc(-n2nnc(C(=O)Nc3ccc4c(c3)B(O)OC43CCC3)c2C)cc1` [Example 20, N-(1-hydroxy-1H-spiro[benzo[c][1,2]oxaborole-3,1′-cyclobutan]-6-yl)-1-(4-methoxyphenyl)-5-methyl-1H-1,2,3-triazole-4-carboxamide], the values for the IC50 in assay [1], in assay [2] and in assay [3] were 310 to 100000 nM, 1100 to 10000 nM and less than 600 nM, respectively.
As for `COc1ccc(-n2cc(C(=O)Nc3ccc4c(c3)B(O)OC4)nn2)cc1` [Example 21, N-(1-hydroxy-1,3-dihydrobenzo[c][1,2]oxaborol-6-yl)-1-(4-methoxyphenyl)-1H-1,2,3-triazole-4-carboxamide], the IC50 is less than 100 nM in assay [1], less than 600 nM in assay [2] and less than 600 nM in assay [3].
As for `COc1ccc(-n2cc(C(=O)Nc3ccc4c(c3)B(O)OC4C)nn2)cc1` (stereo not drawn) [Example 22, N-(1-hydroxy-3-methyl-1,3-dihydrobenzo[c][1,2]oxaborol-6-yl)-1-(4-methoxyphenyl)-1H-1,2,3-triazole-4-carboxamide], the IC50 in assay [1] was 100 to 300 nM; in assay [2], less than 600 nM; in assay [3], less than 600 nM.
Regarding `CC1OB(O)c2cc(NC(=O)c3cn(-c4ccccn4)nn3)ccc21` (stereo not drawn) [Example 23, N-(1-hydroxy-3-methyl-1,3-dihydrobenzo[c][1,2]oxaborol-6-yl)-1-(pyridin-2-yl)-1H-1,2,3-triazole-4-carboxamide], the IC50 in assay [1] was less than 100 nM; in assay [2] it was less than 600 nM; in assay [3] it was less than 600 nM.
For the molecule `Cc1c(C(=O)Nc2ccc3c(c2)B(O)OC3C)nnn1-c1ccccn1` (stereo not drawn) [Example 24, N-(1-hydroxy-3-methyl-1,3-dihydrobenzo[c][1,2]oxaborol-6-yl)-5-methyl-1-(pyridin-2-yl)-1H-1,2,3-triazole-4-carboxamide], the IC50 in assay [1] was less than 100 nM; in assay [2], less than 600 nM; in assay [3], 600 to 2500 nM.
In the same order, the values of `COc1ccc(-n2cc(C(=O)Nc3ccc4c(c3)B(O)OC43CCC3)nn2)cc1` [Example 25, N-(1-hydroxy-1H-spiro[benzo[c][1,2]oxaborole-3,1′-cyclobutan]-6-yl)-1-(4-methoxyphenyl)-1H-1,2,3-triazole-4-carboxamide] are 310 to 100000 nM, 600 to 1000 nM and 2510 to 20000 nM.
In the same order, the values of `O=C(Nc1ccc2c(c1)B(O)OC21CCC1)c1cn(-c2ccccn2)nn1` [Example 26, N-(1-hydroxy-1H-spiro[benzo[c][1,2]oxaborole-3,1′-cyclobutan]-6-yl)-1-(pyridin-2-yl)-1H-1,2,3-triazole-4-carboxamide] are 310 to 100000 nM, 1100 to 10000 nM and 2510 to 20000 nM.
As for `O=C(Nc1ccc2c(c1)B(O)OC2)c1cn(-c2ccccn2)nn1` [Example 61, N-(1-hydroxy-1,3-dihydrobenzo[c][1,2]oxaborol-6-yl)-1-(pyridin-2-yl)-1H-1,2,3-triazole-4-carboxamide], the IC50 in assay [1] was less than 100 nM; in assay [2], less than 600 nM; in assay [3] it was less than 600 nM.
In the case of `Cc1c(C(=O)Nc2ccc3c(c2)B(O)OC3)nnn1-c1ccccn1` [Example 84, N-(1-hydroxy-1,3-dihydrobenzo[c][1,2]oxaborol-6-yl)-5-methyl-1-(pyridin-2-yl)-1H-1,2,3-triazole-4-carboxamide], the IC50 is less than 100 nM in assay [1], 600 to 1000 nM in assay [2] and less than 600 nM in assay [3].
In the same order, the values of `Cc1c(C(=O)Nc2ccc3c(c2)B(O)OC3)nnn1-c1cccnc1` [Example 93, N-(1-hydroxy-1,3-dihydrobenzo[c][1,2]oxaborol-6-yl)-5-methyl-1-(pyridin-3-yl)-1H-1,2,3-triazole-4-carboxamide] are 100 to 300 nM, 1100 to 10000 nM and 2510 to 20000 nM.
